According to the supplement of paper PMC13380429:

Legend:
Settings in all cases: 72 h
HepG2 [1] = assay: drug sensitivity score (DSS) for viability; higher = more toxic; extreme values may be limits of the assay
U2OS [2] = assay: as above
Calu-3 [3] = assay: as above
Caco-2 [4] = assay: as above
HepG2 [5] = assay: relative viability EC50 (midpoint between 100% and the lowest measured viability); higher = less toxic
U2OS [6] = assay: as above
Calu-3 [7] = assay: as above
Caco-2 [8] = assay: as above
HepG2 [9] = assay: cell viability relative to DMSO; higher = less toxic
U2OS [10] = assay: as above
Calu-3 [11] = assay: as above
Caco-2 [12] = assay: as above
Vero E6 [13] = assay: drug sensitivity score (DSS) for viability; higher = more toxic; extreme values may be limits of the assay
Vero E6 [14] = assay: relative viability EC50 (midpoint between 100% and the lowest measured viability); higher = less toxic
Vero E6 [15] = assay: cell viability relative to DMSO; higher = less toxic

Structure (SMILES)	drug sensitivity score (HepG2 [1])	drug sensitivity score (U2OS [2])	drug sensitivity score (Calu-3 [3])	drug sensitivity score (Caco-2 [4])	relative viability EC50 (HepG2 [5]) [µM]	relative viability EC50 (U2OS [6]) [µM]	relative viability EC50 (Calu-3 [7]) [µM]	relative viability EC50 (Caco-2 [8]) [µM]	cell viability (HepG2 [9]; 1 nM) [%]	cell viability (HepG2 [9]; 10 nM) [%]	cell viability (HepG2 [9]; 100 nM) [%]	cell viability (HepG2 [9]; 1000 nM) [%]	cell viability (HepG2 [9]; 10000 nM) [%]	cell viability (U2OS [10]; 1 nM) [%]	cell viability (U2OS [10]; 10 nM) [%]	cell viability (U2OS [10]; 100 nM) [%]	cell viability (U2OS [10]; 1000 nM) [%]	cell viability (U2OS [10]; 10000 nM) [%]	cell viability (Calu-3 [11]; 1 nM) [%]	cell viability (Calu-3 [11]; 10 nM) [%]	cell viability (Calu-3 [11]; 100 nM) [%]	cell viability (Calu-3 [11]; 1000 nM) [%]	cell viability (Calu-3 [11]; 10000 nM) [%]	cell viability (Caco-2 [12]; 1 nM) [%]	cell viability (Caco-2 [12]; 10 nM) [%]	cell viability (Caco-2 [12]; 100 nM) [%]	cell viability (Caco-2 [12]; 1000 nM) [%]	cell viability (Caco-2 [12]; 10000 nM) [%]	drug sensitivity score (Vero E6 [13])	relative viability EC50 (Vero E6 [14]) [µM]	cell viability (Vero E6 [15]; 1 nM) [%]	cell viability (Vero E6 [15]; 10 nM) [%]	cell viability (Vero E6 [15]; 100 nM) [%]	cell viability (Vero E6 [15]; 1000 nM) [%]	cell viability (Vero E6 [15]; 10000 nM) [%]
CCCOc1ccc2[nH]cc(C3=CCNCC3)c2n1	0	0	0	0	> 10	> 10	> 10	> 10	104	106	99.1	97.2	96.4	103	97.9	101	101	99.5	94.1	84.5	96.1	96.2	93.2	95.1	95.4	95.6	94.2	100	–	–	–	–	–	–	–
COc1nccc(-c2c(-c3ccc(F)cc3)ncn2C2CCNCC2)n1	0.4	0	0	0	> 10	> 10	> 10	> 10	93.9	99.8	104	88.4	94.6	96.3	99.5	97.1	96.9	90	87.3	93.7	90.7	95.7	83.3	95.8	95.7	87.6	95.2	87.8	1.4	> 10	100	97	94.4	83.6	89
Clc1cccc(-n2nnnc2NCc2ccccc2Oc2ccccn2)c1Cl	0	0	0	0	> 10	> 10	> 10	> 10	104	98.4	104	104	92.1	101	98.9	100	102	98.9	92	93.5	88	89.1	102	104	97.1	104	96.2	96.1	–	–	–	–	–	–	–
Nc1nc(N)c2nc(-c3cccc(O)c3)cnc2n1	3.9	3.2	6.6	1.6	2	–	1.4	> 10	98.1	99.7	102	92.5	49.6	95.6	99.4	99.7	95.5	51.7	99.9	97.5	103	80	34.1	93.5	105	99.1	84.5	86.1	0.2	> 10	103	95.5	97.7	98.4	86.7
O=C(Nc1cc(C(F)(F)F)cc(C(F)(F)F)c1)c1cnc(Cl)nc1C(F)(F)F	0	0	0	0	> 10	> 10	> 10	> 10	90.4	96.7	99.8	97	92.6	100	100	102	99.9	94.9	98.3	109	101	104	99.2	102	94.3	102	103	97.7	0	> 10	96	97.5	97.1	97.2	102
O=C1C(Cl)=C(NCCN2CCOCC2)C(=O)c2ncccc21	7.8	6.2	4.7	9.4	2.04	2.8	3.61	1.46	94	90.7	87.6	86.1	1.6	98.1	94.1	99.5	95.3	0	110	104	100	109	5.1	94	90.9	89.5	68.4	1.1	1.7	–	102	100	100	99.3	65.4
OCCn1cc(-c2cnc3nnn(Cc4ccc5ncccc5c4)c3n2)cn1	1.3	0	0	1.8	–	> 10	> 10	> 10	102	93.6	88.8	97.7	74.9	105	101	99.3	95.3	97.1	99	92.2	93	93.9	103	93.7	100	97.1	86.2	79.2	0	> 10	99.7	105	97.7	97.7	96.4
CCOc1ccccc1C(=O)O [2-ethoxybenzoic-acid]	0	0	0	0	> 10	> 10	> 10	> 10	111	107	93.5	101	91.7	95.8	99.6	93.7	94.8	98.7	113	99.9	97.1	99.6	108	102	93.1	95.5	97.9	93.9	–	–	–	–	–	–	–
Cc1noc(-c2ccc(-c3ccc(CC(=O)O)cc3)cc2)c1NC(=O)O[C@H](C)c1ccccc1 [AM095]	0	0	0	0	> 10	> 10	> 10	> 10	87.3	104	99.8	101	91.6	94.9	95.3	99	93	97.5	114	95.7	95.7	98.3	102	91.2	97.4	93.3	95.2	94.9	3.9	–	95	98	91.4	81.3	64.2
O=c1ccc2c(OCCCCOc3ccccc3)c3ccoc3cc2o1 [AS-77]	0	0	0	0	> 10	> 10	> 10	> 10	106	99.4	98.3	94.4	90	98.1	102	101	104	100	97.5	92.5	95.8	102	98.4	97	99	96.6	105	89.7	–	–	–	–	–	–	–
CCn1c(=O)/c(=C2\Sc3ccccc3N2C)s/c1=C\c1cccc[n+]1CC [MKT-077]	2.6	3.5	5.2	3.8	3.23	–	2.64	2.43	104	92.8	109	100	49	97.8	98.4	96.2	94.3	51.4	96.4	99.9	101	94.8	20.8	92.5	93.7	100	95	44	0.9	> 10	100	97.1	95.3	90.8	81
COc1ccc(CCC(=O)c2c(O)cc(O[C@@H]3O[C@H](CO)[C@@H](O)[C@H](O)[C@H]3O[C@@H]3O[C@@H](C)[C@H](O)[C@@H](O)[C@H]3O)cc2O)cc1O [Neohesperidin dihydrochalcone (Nhdc)]	0	–	0	0	> 10	–	> 10	> 10	101	110	108	107	92.1	–	–	–	–	–	108	92.8	102	99.6	109	102	104	95.2	94.2	106	0	> 10	103	104	99.9	104	99.7
N[C@H]1CC[C@H](N[C@@H]2C[C@H]2c2ccccc2)CC1 [ORY-1001]	–	0	0	0	–	> 10	> 10	> 10	–	–	–	–	–	96.3	98.7	97.4	101	98.4	93.2	105	94.1	99.3	95.3	93.7	99.5	93.2	100	100	0	> 10	97.7	103	99	96.3	103
O=C(Nc1ccccc1)[C@]12C[C@H]1/C(=N\O)c1ccccc1O2 [PHCCC]	–	0	0	0	–	> 10	> 10	> 10	–	–	–	–	–	97.4	99.9	95.9	101	104	102	102	90.9	96.4	93	104	99	93.4	107	94.5	0	> 10	107	91.5	102	92.8	103
O=C(Nc1ccc(N2CCC(C(=O)N3CCOCC3)CC2)cc1)c1cnc(Oc2ccccc2)nc1 [TFC-007]	0	–	0	0	> 10	–	> 10	> 10	106	110	101	91.8	91.4	–	–	–	–	–	96	87.6	100	100	103	99.6	101	110	97.9	110	0	> 10	90.1	101	90	95	110
OCc1ccc(-c2nn(Cc3ccccc3)c3ccccc23)o1 [YC-1]	9.5	1.5	0	0	1.5	–	> 10	> 10	104	112	102	73.5	0.4	104	105	102	101	65.6	106	93.2	109	104	115	106	112	105	113	97.4	0	> 10	103	103	104	104	98.1
